{"source": "paper PMC3827223", "about": "“Bioorthogonal Small Molecule Imaging Agents Allow Single-Cell Imaging of MET” (PLoS ONE, 2013)", "key": {"[1]": {"test_system": "MET phosphorylation (Y1234/1235) in OVCA429 cells", "assay": "Western blot of HGF-stimulated MET phosphorylation in OVCA429 cells", "format": "cell-based, human", "details": "for effect on MET phosphorylation: OVCA429 cells, 0.1, 0.5 or 1 μM pre-treatment 1 hr, 100 ng/ml HGF stimulation, Western blot densitometry", "method": "Cells were serum-starved in media containing 0.1% fetal bovine serum ~16 hrs before the assay. […] Phosphorylation was then stimulated with 100 ng/ml HGF diluted in RPMI with 1 mg/ml BSA for 5 min at 37°C. Cell lysates were then prepared and run on a gel as described above. Western blot analysis was performed as described above using the MET and phospho-MET primary antibodies (1:1000). Total MET and phospho-MET expression was quantified using densitometry (ImageJ)."}, "recombinant human MET": {"biological_target": "recombinant human MET (Homo sapiens, UniProt P08581)", "sequence (P08581 25-1390)": "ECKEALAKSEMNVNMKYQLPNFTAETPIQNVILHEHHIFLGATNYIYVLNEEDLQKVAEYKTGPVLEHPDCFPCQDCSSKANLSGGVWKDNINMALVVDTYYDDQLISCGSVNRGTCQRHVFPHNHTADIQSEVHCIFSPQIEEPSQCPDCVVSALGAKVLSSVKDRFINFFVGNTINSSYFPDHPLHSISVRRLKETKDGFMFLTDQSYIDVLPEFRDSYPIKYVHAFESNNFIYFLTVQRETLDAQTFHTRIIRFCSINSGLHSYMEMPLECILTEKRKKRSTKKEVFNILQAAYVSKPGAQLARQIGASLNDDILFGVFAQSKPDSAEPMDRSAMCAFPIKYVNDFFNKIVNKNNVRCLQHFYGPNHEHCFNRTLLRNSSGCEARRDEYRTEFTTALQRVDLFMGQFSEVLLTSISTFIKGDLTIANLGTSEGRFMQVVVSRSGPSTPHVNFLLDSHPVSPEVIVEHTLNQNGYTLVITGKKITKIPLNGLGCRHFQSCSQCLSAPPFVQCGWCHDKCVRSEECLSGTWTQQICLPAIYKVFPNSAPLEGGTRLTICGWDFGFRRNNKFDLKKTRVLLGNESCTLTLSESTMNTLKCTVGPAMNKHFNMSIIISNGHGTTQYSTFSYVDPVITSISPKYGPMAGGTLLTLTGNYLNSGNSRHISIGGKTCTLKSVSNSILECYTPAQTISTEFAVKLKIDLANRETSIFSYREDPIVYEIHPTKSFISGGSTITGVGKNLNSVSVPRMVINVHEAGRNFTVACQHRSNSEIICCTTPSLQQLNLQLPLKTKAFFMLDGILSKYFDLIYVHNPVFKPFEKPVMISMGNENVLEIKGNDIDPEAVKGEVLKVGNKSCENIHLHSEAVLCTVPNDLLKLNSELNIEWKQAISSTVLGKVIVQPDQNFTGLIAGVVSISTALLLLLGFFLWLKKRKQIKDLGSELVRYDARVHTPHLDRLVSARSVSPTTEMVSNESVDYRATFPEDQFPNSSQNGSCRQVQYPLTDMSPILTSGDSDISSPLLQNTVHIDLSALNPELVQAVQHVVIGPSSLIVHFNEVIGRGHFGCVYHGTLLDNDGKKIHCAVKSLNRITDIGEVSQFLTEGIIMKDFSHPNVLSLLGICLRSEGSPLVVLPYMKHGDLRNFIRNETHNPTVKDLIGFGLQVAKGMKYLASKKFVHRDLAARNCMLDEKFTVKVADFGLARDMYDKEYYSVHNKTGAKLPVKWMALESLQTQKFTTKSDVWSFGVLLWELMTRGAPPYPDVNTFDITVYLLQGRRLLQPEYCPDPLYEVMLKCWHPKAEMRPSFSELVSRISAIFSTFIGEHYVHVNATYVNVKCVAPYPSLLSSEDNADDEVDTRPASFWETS", "assay": "z'-LYTE FRET kinase activity assay, MET", "protocol": "(§1) The Tyr6 peptide kit was used to measure MET, RON, and AXL activity. The Tyr4 peptide kit was used for PDGFRα and the Tyr1 peptide kit was used to measure KDR activity. All assays were run in accordance with the manufacturer’s instructions, with minor modification. Briefly, MET, RON, and KDR were used at 0.2 μg/ml, 0.8 μg/ml, and 0.7 μg/ml, respectively. The kinase reaction buffer for MET, RON, and KDR was supplemented with 0.67% DMSO. AXL was used at 1.5 μg/ml and the reaction buffer was supplemented with 0.01% sodium azide and 0.67% DMSO. PDGFRα was used at 2.5 μg/ml and the reaction buffer was supplemented with 1mM DTT, 2mM MnCl2, and 0.67% DMSO. Inhibitors were prepared by 4-fold serial dilution at 75X the final concentration in 100% DMSO (8 μM to 0.1 nM). This stock was then diluted to 3X the final concentration in kinase reaction buffer. 5 μl of the 3X stock was added to the final 15 μl reaction volume. Both the z´-LYTE control phosho-peptide and the z´-LYTE peptide were used at a final concentration of 2 μM. […] Development reagent was then incubated for 1 hour at room temperature. […] IC50 values were obtained by fitting the dose-response curves using Prism 6 (GraphPad)."}, "recombinant human AXL": {"biological_target": "T1, recombinant human AXL (Homo sapiens, UniProt P30530)", "T1 sequence (P30530 26-894)": "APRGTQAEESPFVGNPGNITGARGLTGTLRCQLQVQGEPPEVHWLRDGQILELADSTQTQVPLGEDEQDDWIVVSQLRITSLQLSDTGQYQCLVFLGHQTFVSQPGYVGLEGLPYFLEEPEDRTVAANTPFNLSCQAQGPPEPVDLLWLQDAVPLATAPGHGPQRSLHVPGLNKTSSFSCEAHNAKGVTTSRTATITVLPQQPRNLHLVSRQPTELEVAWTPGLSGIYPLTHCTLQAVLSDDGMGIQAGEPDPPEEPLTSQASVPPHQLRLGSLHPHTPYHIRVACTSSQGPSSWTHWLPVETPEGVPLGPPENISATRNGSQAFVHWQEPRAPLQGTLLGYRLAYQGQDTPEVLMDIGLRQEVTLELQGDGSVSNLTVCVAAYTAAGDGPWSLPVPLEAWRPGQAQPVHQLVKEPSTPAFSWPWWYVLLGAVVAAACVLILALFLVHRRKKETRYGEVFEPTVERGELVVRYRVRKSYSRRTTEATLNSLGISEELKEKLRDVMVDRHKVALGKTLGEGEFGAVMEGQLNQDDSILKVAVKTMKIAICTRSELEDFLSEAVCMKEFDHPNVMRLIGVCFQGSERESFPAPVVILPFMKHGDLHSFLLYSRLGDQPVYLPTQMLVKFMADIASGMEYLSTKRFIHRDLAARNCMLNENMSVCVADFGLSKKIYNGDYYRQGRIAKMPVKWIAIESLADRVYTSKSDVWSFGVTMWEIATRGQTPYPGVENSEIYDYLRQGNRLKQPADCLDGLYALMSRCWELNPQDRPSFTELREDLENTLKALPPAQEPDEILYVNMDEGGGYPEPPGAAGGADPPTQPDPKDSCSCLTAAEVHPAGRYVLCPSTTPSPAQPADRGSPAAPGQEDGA", "assay": "z'-LYTE FRET kinase activity assay, AXL", "protocol": "as §1"}, "recombinant Human PDGFRα": {"biological_target": "recombinant Human PDGFRα (Homo sapiens, UniProt P16234)", "sequence (P16234 24-1089)": "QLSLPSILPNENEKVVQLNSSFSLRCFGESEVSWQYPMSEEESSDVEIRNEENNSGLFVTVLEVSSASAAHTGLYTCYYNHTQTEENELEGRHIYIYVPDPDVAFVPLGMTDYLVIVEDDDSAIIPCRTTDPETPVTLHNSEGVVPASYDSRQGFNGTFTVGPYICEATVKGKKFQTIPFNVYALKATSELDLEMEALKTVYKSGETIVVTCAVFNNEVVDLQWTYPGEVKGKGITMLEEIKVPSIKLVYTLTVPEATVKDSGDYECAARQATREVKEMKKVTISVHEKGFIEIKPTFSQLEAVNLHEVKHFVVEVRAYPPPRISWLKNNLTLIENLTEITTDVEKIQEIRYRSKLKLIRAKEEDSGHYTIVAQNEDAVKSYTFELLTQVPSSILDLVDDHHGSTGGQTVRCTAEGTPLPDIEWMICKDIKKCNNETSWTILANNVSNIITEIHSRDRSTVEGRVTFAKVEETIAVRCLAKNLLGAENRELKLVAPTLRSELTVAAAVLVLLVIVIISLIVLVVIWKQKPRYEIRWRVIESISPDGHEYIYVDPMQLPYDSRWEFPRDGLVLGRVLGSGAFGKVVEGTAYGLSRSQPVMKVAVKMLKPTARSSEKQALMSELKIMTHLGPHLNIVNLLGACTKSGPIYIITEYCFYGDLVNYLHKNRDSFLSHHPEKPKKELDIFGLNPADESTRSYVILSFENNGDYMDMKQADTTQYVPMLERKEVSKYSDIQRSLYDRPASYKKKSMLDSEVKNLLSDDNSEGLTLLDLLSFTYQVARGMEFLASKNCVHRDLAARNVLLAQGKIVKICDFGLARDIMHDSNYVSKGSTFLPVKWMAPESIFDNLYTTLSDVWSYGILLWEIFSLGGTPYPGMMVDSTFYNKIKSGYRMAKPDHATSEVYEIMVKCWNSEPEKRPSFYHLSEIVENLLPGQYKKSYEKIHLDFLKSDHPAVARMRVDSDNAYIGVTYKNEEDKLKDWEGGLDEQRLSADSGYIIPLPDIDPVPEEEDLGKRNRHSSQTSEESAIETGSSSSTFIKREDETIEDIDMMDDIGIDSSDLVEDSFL", "assay": "z'-LYTE FRET kinase activity assay, PDGFRα", "protocol": "as §1"}, "recombinant Human KDR": {"biological_target": "recombinant Human KDR (Homo sapiens, UniProt P35968)", "sequence (P35968 20-1356)": "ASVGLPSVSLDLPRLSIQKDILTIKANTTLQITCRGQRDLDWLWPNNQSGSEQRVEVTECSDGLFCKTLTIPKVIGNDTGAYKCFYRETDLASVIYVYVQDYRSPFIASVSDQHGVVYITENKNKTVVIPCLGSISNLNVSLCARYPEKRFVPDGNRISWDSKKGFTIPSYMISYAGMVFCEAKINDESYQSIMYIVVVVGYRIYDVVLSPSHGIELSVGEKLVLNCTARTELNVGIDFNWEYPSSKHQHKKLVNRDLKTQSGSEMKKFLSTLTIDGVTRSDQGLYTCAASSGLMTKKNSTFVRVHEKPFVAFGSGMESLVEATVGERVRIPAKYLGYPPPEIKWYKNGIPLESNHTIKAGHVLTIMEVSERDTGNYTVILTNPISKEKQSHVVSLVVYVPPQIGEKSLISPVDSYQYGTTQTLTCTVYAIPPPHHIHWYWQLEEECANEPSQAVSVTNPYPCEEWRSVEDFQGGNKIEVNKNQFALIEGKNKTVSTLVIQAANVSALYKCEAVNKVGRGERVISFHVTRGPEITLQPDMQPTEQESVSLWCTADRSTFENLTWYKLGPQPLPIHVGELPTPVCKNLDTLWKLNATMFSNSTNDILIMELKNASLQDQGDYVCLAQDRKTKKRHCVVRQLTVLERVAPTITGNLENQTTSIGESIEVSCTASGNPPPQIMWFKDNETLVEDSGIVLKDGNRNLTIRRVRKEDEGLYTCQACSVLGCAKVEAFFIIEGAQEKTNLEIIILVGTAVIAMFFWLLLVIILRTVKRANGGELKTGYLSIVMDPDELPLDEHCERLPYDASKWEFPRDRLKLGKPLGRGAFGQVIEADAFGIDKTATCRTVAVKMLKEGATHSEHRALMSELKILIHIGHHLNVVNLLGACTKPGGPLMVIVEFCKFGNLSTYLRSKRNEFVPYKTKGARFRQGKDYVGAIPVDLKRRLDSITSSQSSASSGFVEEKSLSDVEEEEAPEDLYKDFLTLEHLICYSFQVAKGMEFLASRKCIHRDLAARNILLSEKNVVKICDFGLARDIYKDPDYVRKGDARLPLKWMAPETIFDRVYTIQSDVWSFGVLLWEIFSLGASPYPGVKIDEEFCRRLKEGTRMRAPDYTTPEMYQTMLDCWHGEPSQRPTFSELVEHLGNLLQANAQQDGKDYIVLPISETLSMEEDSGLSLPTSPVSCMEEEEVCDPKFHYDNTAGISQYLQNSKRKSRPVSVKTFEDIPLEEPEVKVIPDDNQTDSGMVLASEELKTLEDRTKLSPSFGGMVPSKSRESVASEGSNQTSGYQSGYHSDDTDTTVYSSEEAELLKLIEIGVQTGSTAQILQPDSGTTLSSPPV", "assay": "z'-LYTE FRET kinase activity assay, KDR", "protocol": "as §1"}, "recombinant Human RON": {"biological_target": "recombinant Human RON (Homo sapiens, UniProt Q04912)", "sequence (Q04912 25-1400)": "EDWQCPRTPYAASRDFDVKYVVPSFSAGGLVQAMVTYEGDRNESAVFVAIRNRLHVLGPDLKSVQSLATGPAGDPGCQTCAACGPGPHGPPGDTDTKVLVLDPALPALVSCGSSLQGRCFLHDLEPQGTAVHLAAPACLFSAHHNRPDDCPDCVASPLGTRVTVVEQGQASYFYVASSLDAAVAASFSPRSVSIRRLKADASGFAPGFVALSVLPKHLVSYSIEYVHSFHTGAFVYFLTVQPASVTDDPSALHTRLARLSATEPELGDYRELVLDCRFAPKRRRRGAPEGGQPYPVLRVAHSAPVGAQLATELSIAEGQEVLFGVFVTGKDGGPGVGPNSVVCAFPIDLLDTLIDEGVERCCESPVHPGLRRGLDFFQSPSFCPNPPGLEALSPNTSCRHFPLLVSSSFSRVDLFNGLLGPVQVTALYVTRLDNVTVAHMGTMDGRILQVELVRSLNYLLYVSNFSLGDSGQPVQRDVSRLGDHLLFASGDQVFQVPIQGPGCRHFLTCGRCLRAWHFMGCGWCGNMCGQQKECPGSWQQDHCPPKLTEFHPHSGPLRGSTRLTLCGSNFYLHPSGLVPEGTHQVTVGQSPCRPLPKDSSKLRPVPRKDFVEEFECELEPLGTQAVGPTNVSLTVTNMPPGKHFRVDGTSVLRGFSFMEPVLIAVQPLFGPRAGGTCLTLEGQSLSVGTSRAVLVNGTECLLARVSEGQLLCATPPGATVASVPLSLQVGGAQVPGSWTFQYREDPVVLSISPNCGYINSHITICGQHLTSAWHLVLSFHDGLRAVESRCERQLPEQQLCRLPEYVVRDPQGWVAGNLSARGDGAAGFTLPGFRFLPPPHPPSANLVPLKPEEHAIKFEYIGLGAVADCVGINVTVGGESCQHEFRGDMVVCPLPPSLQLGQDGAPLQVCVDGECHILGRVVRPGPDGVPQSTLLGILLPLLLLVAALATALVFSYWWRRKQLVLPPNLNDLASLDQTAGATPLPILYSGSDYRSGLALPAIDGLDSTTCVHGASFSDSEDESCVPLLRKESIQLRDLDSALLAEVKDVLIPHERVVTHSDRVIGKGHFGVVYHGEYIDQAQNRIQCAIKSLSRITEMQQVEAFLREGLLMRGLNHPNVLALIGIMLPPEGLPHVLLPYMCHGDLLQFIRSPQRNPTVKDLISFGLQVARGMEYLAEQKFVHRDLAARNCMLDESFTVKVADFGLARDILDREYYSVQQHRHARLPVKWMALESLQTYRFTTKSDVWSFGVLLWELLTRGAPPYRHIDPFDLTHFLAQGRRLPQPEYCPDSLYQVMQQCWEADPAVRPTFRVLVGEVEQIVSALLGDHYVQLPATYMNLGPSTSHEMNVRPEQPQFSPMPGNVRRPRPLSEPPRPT", "assay": "z'-LYTE FRET kinase activity assay, RON", "protocol": "as §1"}, "[2]": {"details": "Foretinib-TCO (11) IC50 value divided by Foretinib IC50 value"}}}
{"smiles": "COc1cc2c(Oc3ccc(NC(=O)C4(C(=O)Nc5ccc(F)cc5)CC4)cc3F)ccnc2cc1OCCCN1CCN(C(=O)CCc2ccc3n2[B-](F)(F)[N+]2=C(C)C=C(C)C2=C3)CC1", "note": "[Foretinib-BODIPY-FL, 5,5-difluoro-7-(3-(4-(3-((4-(2-fluoro-4-(1-((4-fluorophenyl)carbamoyl)cyclopropanecarboxamido)phenoxy)-6-methoxyquinolin-7-yl)oxy)propyl)piperazin-1-yl)-3-oxopropyl)-1,3-dimethyl-5H-dipyrrolo[1,2-c:2',1'-f][1,3,2]diazaborinin-4-ium-5-uide]", "values": [{"measurement": "effect on MET phosphorylation", "setting": "[1]", "value": "decrease in MET phosphorylation"}, {"measurement": "IC50", "setting": "recombinant human MET", "value": 697, "unit": "nM"}, {"measurement": "change of MET IC50 relative to Foretinib (loss in drug activity)", "setting": "recombinant human MET; from 28.7 nM to 697.4 nM", "value": "over 24 fold"}]}
{"smiles": "COc1cc2c(Oc3ccc(NC(=O)C4(C(=O)Nc5ccc(F)cc5)CC4)cc3F)ccnc2cc1OCCCN1CCN(C(=O)OC2CC/C=C/CCC2)CC1", "note": "(centres unmarked) [Foretinib-TCO, (E)-cyclooct-4-en-1-yl 4-(3-((4-(2-fluoro-4-(1-((4-fluorophenyl)carbamoyl)cyclopropanecarboxamido)phenoxy)-6-methoxyquinolin-7-yl)oxy)propyl)piperazine-1-carboxylate]", "values": [{"measurement": "IC50", "setting": "recombinant human AXL", "value": 72.5, "unit": "nM"}, {"measurement": "Fold Change (TCO/Foretinib) AXL", "setting": "recombinant human AXL; [2]", "value": 3.4}, {"measurement": "effect on MET phosphorylation", "setting": "[1]", "value": "decrease in MET phosphorylation"}, {"measurement": "potency in decreasing MET phosphorylation compared with the BODIPY-FL (12) version", "setting": "[1]; OVCA429 cells, 0.1-1 μM, HGF stimulation, Western blot", "value": "greater potency"}, {"measurement": "IC50", "setting": "recombinant human MET", "value": 88.6, "unit": "nM"}, {"measurement": "Fold Change (TCO/Foretinib) MET", "setting": "recombinant human MET; [2]", "value": 3.1}, {"measurement": "IC50", "setting": "recombinant Human PDGFRα", "value": 265, "unit": "nM"}, {"measurement": "Fold Change (TCO/Foretinib) PDGFRα", "setting": "recombinant Human PDGFRα; [2]", "value": 4.5}, {"measurement": "IC50", "setting": "recombinant Human KDR", "value": 150, "unit": "nM"}, {"measurement": "Fold Change (TCO/Foretinib) KDR", "setting": "recombinant Human KDR; [2]", "value": 6.2}, {"measurement": "IC50", "setting": "recombinant Human RON", "value": 82.7, "unit": "nM"}, {"measurement": "Fold Change (TCO/Foretinib) RON", "setting": "recombinant Human RON; [2]", "value": 4.1}]}
{"smiles": "O=C(NCCn1cc(-c2cnc3nnn(Cc4ccc5ncccc5c4)c3n2)cn1)OC1CC/C=C/CCC1", "note": "(centres unmarked) [PF04217903-TCO, (E)-cyclooct-4-en-1-yl (2-(4-(1-(quinolin-6-ylmethyl)-1H-[1,2,3]triazolo[4,5-b]pyrazin-6-yl)-1H-pyrazol-1-yl)ethyl)carbamate]", "values": [{"measurement": "IC50", "setting": "recombinant human MET", "value": 1.48, "unit": "nM"}]}
{"smiles": "COc1cc2c(Oc3ccc(NC(=O)C4(C(=O)Nc5ccc(F)cc5)CC4)cc3F)ccnc2cc1OCCCN1CCOCC1", "note": "[Foretinib, N1’-[3-fluoro-4-[[6-methoxy-7-(3-morpholinopropoxy)-4-quinolinyl]oxy]phenyl]-N1-(4-fluorophenyl)cyclopropane-1,1-dicarboxamide, reference compound]", "values": [{"measurement": "effect on MET phosphorylation", "setting": "[1]", "value": "complete decrease in MET phosphorylation"}]}
